Here are results for 87 compounds from a melting point compilation (Tetko et al.; mined from patent text by program, amines drawn as free bases though some values may be those of a salt).

In general, melting point refers to the temperature, or range, at which the solid turns liquid.

The structures appear in SMILES notation.

Compound `COC(=O)CC/C(C)=C/Cc1c(NC(=O)N(C)C)c2c(c(C)c1OC)COC2=O` displayed a melting point of 116 to 118 °C.
The figure for `N#Cc1nc2ccc(Oc3ccc(C(F)(F)F)cc3Cl)cc2[nH]1` is 192 °C; for `O=C1NC(=S)S/C1=C\c1ccccc1Nc1cccc(C(F)(F)F)c1` it is 234 to 236 °C; for `CCOc1ccc2[nH]c(=O)n(N3CCN(C)CC3)c2c1` it is 108 °C.
The same measure for `O=Cc1ccc(C=CC(=O)N2CCc3c([nH]c4ccccc34)C2c2ccc3c(c2)CCO3)cc1` (configuration not stated): 175 °C; for `CC(C)(C)c1cc(C=Cc2ccccc2NC(=O)N(Cc2ccccc2)Cc2ccccc2)cc(C(C)(C)C)c1O`: 175 to 178 °C.
For `CCOc1cc(C2c3cccc(C4CC4C(N)=O)c3C(=O)N2CCS(C)(=O)=O)ccc1O` (configuration not stated), the melting point came out at 296 °C.
The figure for `CN(C1CCN(CCC(F)(F)F)CC1)S(=O)(=O)c1ccc(Nc2nccc(Nc3ccc(F)c(F)c3)n2)cc1` is 202 to 203 °C; for `CC(C)N(C(=O)n1oc(=O)[nH]c1=O)c1ccc(F)cc1` it is 94 to 95 °C.
Take `CC(C)CSc1ccc(-c2nc(=O)c3ccccc3s2)cn1`: the melting point lay within 92.8 to 93.1 °C.
As for `COC(=O)c1nn(C2CCCCO2)cc1NC(=O)c1cccc(C)n1` (configuration not stated), the melting point was 100 to 102 °C.
The same measure for `O=C(c1ccc(Cl)cc1)N1CCc2cc(S(=O)(=O)N3CCN(c4cccc(Cl)c4)CC3)ccc21`: 191 to 192 °C.
The figure for `COC(=O)C1Cc2c([nH]c3ccccc23)C(c2cc3ccccc3o2)N1` (configuration not stated) is 195 to 198 °C.
As to `O=C(O)CCC(=O)c1ccc(NC(=O)c2ccccc2F)cc1`, the melting point lay within 191 to 193 °C.
The figure for `CCOC(=O)c1ccc(OCc2ccc(F)cc2)cc1` is 60 to 62 °C; for `NS(=O)(=O)c1ccc(F)c(C(O)CCl)c1` (configuration not stated) it is 112 °C; for `Cc1c(F)c(F)cc2c(=O)c(C(=O)O)cn(C3CC3)c12` it is 240 to 243 °C.
The figure for `O=C(O)C=C1SC(=NC2CCCCC2)N(C2CCCCC2)C1=O` is 189 to 190 °C.
For the compound `Fc1ncnc(Oc2ccccc2)c1F`, the melting point was in the range of 65 to 66 °C.
Take `Cc1ncnc2c(NC(=O)c3c(Cl)cccc3Cl)cccc12`: the melting point fell in the range of 223 to 225 °C.
In the case of `CCC(CC)Nc1c([N+](=O)[O-])cc(C)c(COC(=O)NC)c1[N+](=O)[O-]`, the melting point lay within 117 to 120 °C.
The figure for `COc1ccc(-n2nc(-c3c(-c4ccccc4)nn4ccccc34)ccc2=O)cc1` is 158 °C.
The same measure for `COc1ccc(NC(=O)[C@H]2[C@H](c3ccc(S(N)(=O)=O)cc3)C23CCCC3)c(OC)n1` (relative stereo): 112 to 115 °C; for `C(=C1COc2ccc3c4c(nnc1c24)C(=Cc1ccccc1)CO3)c1ccccc1`: 242 °C; for `O=C(Nc1ccccn1)Nc1cccc2c1C1CCCCN1C2=O` (configuration not stated): 142 °C.
In the case of `COC(=O)c1ccc(-c2nc(Nc3cc(OC)c(OC)c(OC)c3)ncc2C#N)cc1`, the melting point lay within 206 to 208 °C.
The same measure for `COc1ccc([N+](=O)[O-])cc1C=CC1=NC(C)(C)CO1`: 115 to 116 °C; for `CCCCc1nc2c(N)nc3ccccc3c2o1`: 96 to 98 °C; for `O=C(O)CCc1oc(Sc2ccccc2)nc1-c1ccc(Cl)cc1`: 156 to 157 °C.
The compound `N#Cc1ccsc1C1=CC(=O)Nc2cc(-c3ccccc3F)ccc2N1` had a melting point of 238 to 240 °C.
The figure for `CCCc1nc2c(N)nc3cc(-c4cccc(C(=O)NC5CC5)c4)ccc3c2s1` is 251 to 254 °C.
Compound `CCCN1CC(CN2CC(=O)NC2=O)CC2c3cccc4[nH]cc(c34)CC21` (configuration not stated) returned a melting point of 168 to 170 °C.
The figure for `FC(F)(F)c1ccc(-c2cc(Oc3ccc4cccnc4c3)ncn2)c(Br)c1` is 185 to 187 °C; for `Nc1ccc(CP2(=O)OCCCO2)cc1` it is 172 to 173 °C.
The same measure for `CCCCCCC(O)CCCCCCCC(COC(C)=O)(COC(C)=O)NC(C)=O` (configuration not stated): 82 to 84 °C; for `Cc1nc2c(O[C@@H]3c4ccccc4C[C@H]3O)cccn2c1C=O` (relative stereo): 187 to 192 °C.
The figure for `Cc1nc(-n2ccc(OCc3ccccc3)cc2=O)sc1C(=O)NCc1ccc(F)c(F)c1` is 225 to 227 °C.
`CNN1c2c(cc(Oc3ccc(F)cc3F)c(=O)n2NC)C=NC1SCc1ccccc1` (configuration not stated) yielded a melting point of 80.5 to 89.9 °C.
The same measure for `Cc1ccccc1-n1c(=O)nc(N(C)C)n(C)c1=O`: 159 to 162 °C; for `C[C@@H](NC(=O)c1noc(-c2ccc(Cl)cc2)n1)[C@](O)(Cn1cncn1)c1ccc(F)cc1F`: 79 to 83 °C.
The same measure for `Cn1c(S(C)(=O)=O)nc2ccccc21`: 131 to 132 °C.
For the compound `CN1CCCC1CCNc1nccc(Oc2ccc(NC(=O)c3cc(F)cc(N4CCCCC4)c3)c3ccccc23)n1` (configuration not stated), the melting point was 112 to 114 °C.
The figure for `COc1ccc(C(=O)Nc2ccc3ccc(Oc4ccccc4C)nc3n2)cc1` is 153 °C; for `CNC(=O)c1ccc(N2CCN(Cc3cc4c(c(-c5ccccc5)c3)OC(C)C(=O)N4)CC2)cc1` (configuration not stated) it is 185 to 189 °C; for `CCn1c(COC(=O)NC(=O)c2ccc(Cl)cc2)nc(C(C)C)c1Sc1cc(Cl)cc(Cl)c1` it is 82 to 83 °C.
Turning to `Cn1cc(C(=O)c2ccncc2)cc1C(=O)c1ccc(Cl)cc1`, the melting point fell in the range of 174 to 175 °C.
`CCN(c1cccc(OC)c1)c1nc(=O)c2cccnc2s1` had a melting point of 136 °C.
The figure for `N#Cc1cccc(NC(=O)CN2CCC(Cc3ccccc3)CC2)c1` is 88 to 90 °C; for `CCOC(=O)C(C)(C)Oc1ccc(CCNC(=O)CCc2cc(C(C)(C)C)c(O)c(C(C)(C)C)c2)cc1` it is 168 to 171 °C.
The same measure for `COc1ccc2nc3cc(N4CCN(C)CC4)c(=O)cc-3sc2c1`: 208 to 209 °C; for `COc1ccc(CNc2ncnc3c2ncn3C2OC(Cn3cc(Cc4ccccc4)nn3)C(O)C2O)cc1` (configuration not stated): 123 to 124 °C; for `Oc1cc(O)cc(CN/C=C2\CN=Cc3ccc(Br)cc32)c1`: 263 to 264 °C.
The figure for `O[C@H](COc1cccc2[nH]ccc12)CN1CC=C(c2c[nH]c3c(Cl)cccc23)CC1` is 85 to 90 °C; for `Cc1c(C(F)(F)F)cnn(-c2cc(OCC=O)c(Cl)cc2F)c1=O` it is 107 °C; for `CC(C)(C)c1ccccc1N1CCN(C(=O)c2nc[nH]n2)CC1` it is 295 °C.
Compound `CCN1CC(=O)N(c2cc(Cl)ccc2OC)C1=S` returned a melting point of 171 to 174 °C.
The figure for `COc1ccc(Nc2ccccc2)c2c1c(CCN(C)C)cn2C` is 158 to 160 °C; for `Cc1cc(-c2cc(C(F)(F)F)nc(-n3cnc(-c4ccc(S(N)(=O)=O)cc4)c3)n2)ccc1C(F)(F)F` it is 287 °C; for `C=CCc1ccc2oc(C(=O)O)cc(=O)c2c1O` it is 222 to 224 °C.
The same measure for `N#CC(C#N)=C1N(CCCN2CCCCC2)CCCN1CCCN1CCCCC1`: 88 to 90 °C; for `COc1cc(C)c(Cc2cnoc2)cc1OC`: 68.5 to 70.5 °C.
The figure for `CSc1cc(C)nc(SC)c1NC(=O)CSc1nc2ccccc2o1` is 203 to 205 °C; for `Clc1ccc([C@@]2(Cn3ccnc3)OC[C@H](COc3ccc4c(c3)CCN(Cc3ccc(-c5ccccc5)cc3)C4)O2)c(Cl)c1` (racemic) it is 103 to 105 °C.
`Cc1nn(C2CCCC2O)c(N)c1C#N` (configuration not stated) had a melting point of 157 to 159 °C.
As to `CC1(C)Oc2ccsc2C(NC(=O)c2ccc(C#N)cc2)C1O` (configuration not stated), the melting point is 177 to 178 °C.
In turn, `ClCSc1n[nH]c(C(c2ccccc2)(c2ccccc2)c2ccccc2)n1` had a melting point of 121 to 122 °C.
The compound `COCc1c(C=O)ncc2c1c1c(OCc3ccccc3)cccc1n2S(=O)(=O)c1ccc(C)cc1` returned a melting point of 125 to 127 °C.
The compound `CCn1c(=O)c2c(nc(/C=C/c3ccccc3OC)n2C)n(CC)c1=O` yielded a melting point of 190 °C.
`CC(C)(C)OC(=O)NCCNC(=O)c1cnc(S)n1Cc1cc(F)cc(F)c1` came in with a melting point of 178 to 179 °C.
`O=C1N(Cc2ccccn2)c2ccccc2C12COc1cc3c(c(-c4ccoc4)c12)CCO3` (configuration not stated) returned a melting point of 195 to 197 °C.
The figure for `CC(=O)N1CCC(CNc2nc3ccccc3s2)CC1` is 138 °C.
`CC(C)Oc1ccc2c(c1O)OC(C)(C)CC2=O`: the melting point was 114 to 116 °C.
The figure for `COc1cccc(COc2ncc(F)c(NN)n2)c1` is 103 to 106 °C.
With `Cn1nc(-c2ccc(OC3CCN(C4CCCC4)CC3)cc2)ccc1=O`, the melting point was 129 to 132 °C.
In the case of `COc1ccc(C(O)c2ccc(OC)c(OCc3ccccc3)c2)cc1OCc1ccccc1`, the melting point was 103 to 105 °C.
Compound `Clc1ccc(C=NN=c2ccn(-c3ccc(Cl)cc3)cc2)cc1` yielded a melting point of 165 to 166 °C.
With `CC(C)(C)OC(=O)NC(CC1=CC(=O)NC1=O)C(=O)OC(C)(C)C` (configuration not stated), the melting point fell in the range of 104 to 105 °C.
In turn, `CC(=O)NC[C@H]1CN(c2ccc(-n3cnnc3)c(F)c2)C(=O)O1` returned a melting point of 204 to 206 °C.
For `Cc1cc(OCCCCl)c(C)c(C)c1OCCCCl`, the melting point was 143 °C.
For `CCOC(=O)C1=C(C)NC(C)=C(C(=O)OCC)C1c1ccccc1C=CC(=O)O`, the melting point lay within 175 to 178 °C.
The same measure for `CCC(=O)CCC(=O)c1ccc(F)cc1`: 56 to 57 °C.
The same measure for `O=C(Nc1ccc(F)cc1)c1ccccc1F`: 102 to 104 °C.
In the case of `Clc1ccc(-c2n[nH]c(SC3CCNCC3)c2-c2ccncc2)cc1`, the melting point was determined as 211 °C.
The figure for `CC1(C)CC(=O)C(C(=O)Nc2ccc(Cl)c(Cl)c2)C(=O)O1` (configuration not stated) is 212 to 215 °C; for `CN1CCC(c2c[nH]c3ccc(SCc4ccccc4)cc23)CC1` it is 138 to 141 °C; for `COC(=O)CCC(=O)c1ccc(-c2ccc(Cl)cc2F)cc1` it is 90.5 to 92.5 °C.
Compound `CCOC(=O)c1cc2c(cn1)[nH]c1ccc(Br)cc12` returned a melting point of 308 to 313 °C.
